For 13 compounds, TGI results are on record in PubChem BioAssay (NCI).

Test systems include HCC-2998 colon; U251 CNS; SW-620 colon; RPMI-8226 leukemia; CCRF-CEM leukemia; LOX IMVI melanoma; UO-31 renal; BT-549 breast; K-562 leukemia; SNB-75 CNS.
What all share (experiment): DTP human tumour cell line panel, 48 h

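Protocol summary: plate cells (96-well), add compound at 5 concentrations, incubate 48 h, interpolate endpoints linearly. Definition used: TGI = concentration required for complete inhibition of growth.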

By TGI is commonly meant the concentration at which net growth stops.

As to `S=C1SCN(Cc2ccco2)CN1c1ccc(Br)cc1`, the TGI in the test with HCC-2998 colon came out at 27.5 µM; with U251 CNS, 57.9 µM; in the test on SW-620 colon, 62.3 µM; in the test on RPMI-8226 leukemia, 35.3 µM; in the test with CCRF-CEM leukemia, 67.4 µM; in the test on LOX IMVI melanoma, 13 µM. Further, the TGI with UO-31 renal was 44.9 µM; in the test with BT-549 breast it was 44 µM; in the test with K-562 leukemia, 15.9 µM; in the test with SNB-75 CNS, more than 100 µM.

As to `CC(=O)Nc1ccc(OC2=CCN(C)CC2)cc1`, the concentration for total growth inhibition (TGI) in the test with HCC-2998 colon, with U251 CNS, in the test with SW-620 colon, with RPMI-8226 leukemia, in the test on CCRF-CEM leukemia and with LOX IMVI melanoma was more than 100 µM each time. In addition, the TGI in the test with UO-31 renal, in the test on BT-549 breast, in the test on K-562 leukemia and in the test on SNB-75 CNS was more than 100 µM each time.

Regarding `O=c1[nH]nc(-c2ccccc2)n1/N=C/c1cccnc1`, the TGI with HCC-2998 colon, with U251 CNS, in the test with SW-620 colon, in the test with RPMI-8226 leukemia, in the test with CCRF-CEM leukemia and in the test with LOX IMVI melanoma was more than 100 µM each time. Further, the TGI in the test with UO-31 renal, with BT-549 breast, with K-562 leukemia and in the test with SNB-75 CNS was more than 100 µM each time.

As for `C=C(C)C(O)C(O)c1c(OC)ccc2ccc(=O)oc12` (centres undefined), the TGI with HCC-2998 colon, with U251 CNS, in the test on SW-620 colon, with RPMI-8226 leukemia, with CCRF-CEM leukemia and in the test with UO-31 renal was more than 100 µM throughout. Further, the TGI in the test with BT-549 breast, with K-562 leukemia and in the test with SNB-75 CNS was more than 100 µM throughout.

As for `O=C1/C(=N\S(=O)(=O)c2ccccc2)C([n+]2ccc(Cc3ccccc3)cc2)=C([O-])c2ccccc21`, the total growth inhibition concentration (TGI) in the test on HCC-2998 colon was 2.51 µM; with U251 CNS, 5.48 µM; with SW-620 colon it was 1.96 µM; with RPMI-8226 leukemia, more than 100 µM; in the test with CCRF-CEM leukemia it was more than 100 µM; in the test with LOX IMVI melanoma it was 1.83 µM. For the same compound, the TGI with UO-31 renal was 4.62 µM; in the test with BT-549 breast it was 2.72 µM; in the test with K-562 leukemia, more than 100 µM; in the test on SNB-75 CNS it was 2.64 µM.

Turning to `CC1(C)[C@H]2CC[C@]1(C)[C@H](OC(=O)NNC(=O)O[C@@H]1C[C@@H]3CC[C@@]1(C)C3(C)C)C2`, the TGI in the test on HCC-2998 colon is 27.7 µM; in the test on U251 CNS, 62.9 µM; in the test with SW-620 colon, 72.9 µM; in the test with RPMI-8226 leukemia, 30.7 µM; in the test with CCRF-CEM leukemia, 76.6 µM; in the test with LOX IMVI melanoma, more than 100 µM. Also, the total growth inhibition concentration (TGI) turned out to be 29.2 µM in the test with UO-31 renal, 42.9 µM in the test on BT-549 breast, 17 µM in the test on K-562 leukemia and 28.1 µM in the test with SNB-75 CNS.

With `O=C(OCCN=c1c2ccccc2ccc2ccccc12)c1ccc([N+](=O)[O-])cc1`, the TGI in the test with HCC-2998 colon, in the test with U251 CNS, in the test on SW-620 colon, in the test on RPMI-8226 leukemia, in the test on CCRF-CEM leukemia and with LOX IMVI melanoma was more than 100 µM each time. Besides, the total growth inhibition concentration (TGI) in the test on UO-31 renal, in the test with BT-549 breast, in the test with K-562 leukemia and with SNB-75 CNS was more than 100 µM in each case.

As to `CCCCCCCCCCCCCCCCCCNc1ccn(C2OC(COP(=O)(O)OCC3OC(n4cc(F)c(NCCCCCCCCCCCCCCCCCC)nc4=O)CC3O)C(O)C2O)c(=O)n1` (centres undefined), the total growth inhibition concentration (TGI) in the test on HCC-2998 colon, in the test with U251 CNS, in the test on SW-620 colon, with RPMI-8226 leukemia, with CCRF-CEM leukemia and with LOX IMVI melanoma was more than 100 µM throughout. Moreover, the TGI in the test on UO-31 renal, in the test on BT-549 breast, in the test with K-562 leukemia and in the test on SNB-75 CNS was more than 100 µM throughout.

For `CCNC(=O)c1cc(/C=C/c2ccc([N+](=O)[O-])o2)nc2ccccc12`, the TGI with HCC-2998 colon, with U251 CNS, with SW-620 colon, with RPMI-8226 leukemia, in the test with CCRF-CEM leukemia and in the test on LOX IMVI melanoma was more than 100 µM throughout. Further, the TGI in the test with UO-31 renal was more than 100 µM; in the test on BT-549 breast, more than 100 µM; in the test on K-562 leukemia it was more than 100 µM; in the test on SNB-75 CNS, 63.8 µM.

For the compound `CCOP(=O)(OCC)C1CC(n2cc(C)c(=O)[nH]c2=O)OC1CO` (centres undefined), the TGI with HCC-2998 colon, in the test on U251 CNS, with SW-620 colon, in the test with RPMI-8226 leukemia, with CCRF-CEM leukemia and in the test on LOX IMVI melanoma was more than 100 µM each time. Besides, the total growth inhibition concentration (TGI) in the test with UO-31 renal, in the test on BT-549 breast, with K-562 leukemia and with SNB-75 CNS was more than 100 µM in each case.

`COc1c(O)cc(O)c2c(=O)cc(-c3ccccc3)oc12`: the TGI in the test on HCC-2998 colon is more than 100 µM; in the test on U251 CNS, more than 100 µM; with SW-620 colon it was more than 100 µM; in the test on RPMI-8226 leukemia, 37.1 µM; in the test with CCRF-CEM leukemia, more than 100 µM; in the test on LOX IMVI melanoma, 68.8 µM. The TGI with UO-31 renal is 6.04 µM; with BT-549 breast, more than 100 µM; in the test on K-562 leukemia, more than 100 µM; in the test with SNB-75 CNS it was more than 100 µM.

As for `CSC1=N/C(=C\c2ccco2)C(=O)N1CN1CCOCC1`, the TGI with HCC-2998 colon is 97 µM; in the test on U251 CNS it was more than 100 µM; in the test on SW-620 colon it was more than 95.4 µM; with RPMI-8226 leukemia, more than 80.4 µM; in the test with CCRF-CEM leukemia, more than 90.3 µM; in the test on LOX IMVI melanoma, more than 100 µM. Moreover, the TGI in the test on UO-31 renal was more than 100 µM; with BT-549 breast, 41.2 µM; in the test on K-562 leukemia it was more than 100 µM; in the test with SNB-75 CNS, more than 100 µM.

On to `O=C(Nc1ccccc1)N(CCCCN(Cc1ccccc1)C(=O)Nc1ccccc1)Cc1ccccc1`, for which the TGI in the test on HCC-2998 colon, in the test with U251 CNS, with SW-620 colon, with RPMI-8226 leukemia, with CCRF-CEM leukemia and in the test with LOX IMVI melanoma was more than 100 µM each time. Besides, the TGI in the test on UO-31 renal, in the test with BT-549 breast, in the test on K-562 leukemia and in the test with SNB-75 CNS was more than 100 µM in each case.
